Results reported in US20190192618A1 (priority 2016, published 2019).
Read-outs that look alike come from different tables or passages of the source. Bridge positions count the residues as written; N and C are the ends. Square brackets hold non-standard residues; d marks the D form. Peptide text beside a SMILES is read from it. Dab = NCC[C@H](N)C(=O)O

Key:
[1] = target: T1, hERG potassium channel (Homo sapiens, UniProt Q12809); experiment: hERG current inhibition, single cell patch clamp in HEK293 cells; type: cell-based
T1 construct: expressed in transfected cells
Description: Currents were recorded via single cell patch clamp.

[2] = in vivo; conditions: male, rat, plasma, 10 mg/kg
Description: (§1) PK analysis was performed using Phoenix® WinNonlin® Version 6.3 (Pharsight Corp. [Mountain View, Calif.]). […] The standard species body weights were assumed to perform allometric scaling purposes. For scaling, mouse, rat, monkey, and human weight were assumed to be 0.02, 0.25, 5, and 70 kg, respectively. PK data from only male animals were available for scaling.
(§2) A MixRatio (additive and multiplicative) weighting was applied for all PK modeling.
(§3) Single dose simulations were done using the low clearance estimate and high clearance estimate obtained from allometric scaling. […] Day 1 data was unavailable for rat. Only 2-3 measurable time points were used in the mouse PK data.

[3] = in vivo; conditions: male, monkey, plasma, 20 mg/kg
Description: as §1, §2, §3

[4] = Cardiopulmonary safety pharmacology study in monkeys; conditions: for Body Temperature / Heart Rate / Mean Arterial Blood Pressure / QTc Interval / Respiratory Rate: monkey, in vivo
Description: The monkeys in the study were telemeterized prior to study start. Data was collected in one minute intervals over a 24 hour period. The data was reported in 15 minute intervals over the first three hours.

[5] = GLP 14 day repeat dose study in rats, toxicology; conditions: rat
Description: Parameters assessed during the in-life phase of the study included weekly body weights, clinical observations, survival, food consumption, ophthalmology, clinical pathology, and urine and plasma toxicokinetics. At necropsy, gross observations were recorded, organ weights were measured, and specific tissues were collected. Histopathologic assessment was conducted on tissue sections stained with hematoxylin and eosin (H&E).
The use of an escalation phase was due to the acute histamine and/or complement mediated reactions commonly seen in rats with a broad range of polymyxins.
For toxicology assessment, all animals were observed twice daily for mortality and moribundity. Clinical examinations were performed daily, and detailed physical examinations were performed weekly. Ophthalmic examinations were performed during once prior to study initiation and once during the study. Clinical pathology parameters (including Blood Urea Nitrogen and Serum Creatinine) were analyzed for all animals assigned to the scheduled necropsies. Complete necropsies were conducted on all animals, and selected organs were weighed at the scheduled necropsies. […] Gross lesions and infusion sites were examined from all animals in the low-dose group at the primary necropsy. Recovery was assessed in the mid-dose group and the control group following a 28-day non-dosing period. Following the 28-day non-dosing (recovery) period, complete necropsies were conducted on all animals, and selected organs were weighed at the scheduled necropsy. Selected tissues were examined microscopically from all animals.

[6] = in vivo; conditions: male, mouse, plasma, 10 mg/kg
Description: as §1, §2, §3

[7] = rat, following 14 days of repeated dosing
[8] = Efficacy studies in mice (mouse thigh studies); type: in vivo; conditions: mouse thigh studies with SPR741 and rifampin
Description: A 70 kg human weight was used in all models.
Pharmacologic HED was then calculated using the equation below: […]

[9] = in vivo; conditions: Sprague-Dawley, rat, plasma, iv, 1-hour IV infusion twice daily; for AUC(0-t): AUC(0-24)
[10] = GLP 14 day repeat dose toxicology study in monkeys incl. CNS assessment; conditions: cynomolgus monkey, in vivo
Description: Histopathologic assessment was conducted on tissue sections stained with hematoxylin and eosin (H&E).
The neurological assessment was performed on study day 9 or 10 and compared to both pre-test data (study day −6 or −7) as well as the vehicle control.

[11] = human, fixed exponent, monkey PK data
[12] = human, fixed exponent, mouse PK data
[13] = human, fixed exponent, rat PK data
[14] = human, floating exponent, mouse, rat and monkey PK data
[15] = human, floating exponent, rat and monkey PK data
[16] = 5 mg/kg/day, 5 mg/kg/day, study day 1
[17] = 5 mg/kg/day, 5 mg/kg/day, study day 14
[18] = 10 mg/kg/day, 10 mg/kg/day, study day 1
[19] = 10 mg/kg/day, 10 mg/kg/day, study day 14
[20] = 15 mg/kg/day, 15 mg/kg/day, study day 1
[21] = 15 mg/kg/day, 15 mg/kg/day, study day 14

T1 sequence (Q12809 whole entry): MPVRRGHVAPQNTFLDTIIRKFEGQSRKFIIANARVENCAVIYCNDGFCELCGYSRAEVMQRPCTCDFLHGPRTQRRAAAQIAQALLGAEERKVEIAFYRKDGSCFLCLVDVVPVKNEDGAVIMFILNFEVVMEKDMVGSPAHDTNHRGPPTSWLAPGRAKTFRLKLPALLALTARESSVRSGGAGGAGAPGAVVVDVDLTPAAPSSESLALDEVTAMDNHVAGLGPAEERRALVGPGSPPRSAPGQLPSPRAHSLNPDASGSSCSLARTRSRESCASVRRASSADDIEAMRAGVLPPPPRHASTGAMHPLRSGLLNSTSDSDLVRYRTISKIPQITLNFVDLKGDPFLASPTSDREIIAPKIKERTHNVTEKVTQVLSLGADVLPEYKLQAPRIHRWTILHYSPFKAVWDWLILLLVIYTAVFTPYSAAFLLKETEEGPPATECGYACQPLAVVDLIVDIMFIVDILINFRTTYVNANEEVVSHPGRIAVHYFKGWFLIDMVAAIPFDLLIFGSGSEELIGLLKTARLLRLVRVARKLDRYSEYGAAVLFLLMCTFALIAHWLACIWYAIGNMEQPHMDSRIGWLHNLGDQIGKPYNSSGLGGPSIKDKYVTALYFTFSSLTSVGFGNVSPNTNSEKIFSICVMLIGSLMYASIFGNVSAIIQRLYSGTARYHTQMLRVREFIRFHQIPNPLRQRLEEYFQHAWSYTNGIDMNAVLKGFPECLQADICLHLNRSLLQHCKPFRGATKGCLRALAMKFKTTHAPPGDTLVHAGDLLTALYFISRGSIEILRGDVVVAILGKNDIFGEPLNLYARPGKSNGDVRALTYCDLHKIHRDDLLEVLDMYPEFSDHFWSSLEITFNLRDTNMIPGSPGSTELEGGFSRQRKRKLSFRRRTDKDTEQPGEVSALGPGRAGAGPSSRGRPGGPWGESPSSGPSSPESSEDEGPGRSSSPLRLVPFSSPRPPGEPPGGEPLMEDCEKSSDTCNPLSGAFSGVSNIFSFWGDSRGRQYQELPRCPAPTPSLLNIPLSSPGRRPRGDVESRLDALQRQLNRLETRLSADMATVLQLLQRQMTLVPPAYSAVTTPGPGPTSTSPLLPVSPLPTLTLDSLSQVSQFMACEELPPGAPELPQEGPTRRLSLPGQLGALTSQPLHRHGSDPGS

Structure (SMILES): COc1cc(N)c(Cl)cc1C(=O)NC1CCN(CCCOc2ccc(F)cc2)CC1OC (stereo not shown) [Cisapride, reference compound]
- inhibition at 0.047 μg/mL ([1]; human): 79.8%

Structure (SMILES): CC(=O)N[C@H](C(=O)N[C@H](CO)C(=O)N[C@H]1CCNC(=O)[C@H]([C@@H](C)O)NC(=O)[C@H](CCN)NC(=O)[C@H](CCN)NC(=O)[C@H](CC(C)C)NC(=O)[C@@H](Cc2ccccc2)NC(=O)[C@H](CCN)NC1=O)[C@@H](C)O [SPR741, Acetyl-Thr-dSer-cy[Dab-Dab-dPhe-Leu-Dab-Dab-Thr]] (Ac-T[dS][Dab][Dab][dF]L[Dab][Dab]T; lactam 3-C)
- Vd [2]: 0.345 L/kg
- clearance [2]: 7.05 mL/min/kg
- Vd [3]: 0.238 L/kg
- clearance [3]: 2.28 mL/min/kg
- Body Temperature ([4]; 5 mg/kg): 38.3 °C
- Heart Rate ([4]; 5 mg/kg): 142 bpm
- Mean Arterial Blood Pressure ([4]; 5 mg/kg): 105 mm Hg
- QTc Interval ([4]; 5 mg/kg): 220 ms
- Respiratory Rate ([4]; 5 mg/kg): 27
- Body Temperature ([4]; 10 mg/kg): 38.3 °C
- Heart Rate ([4]; 10 mg/kg): 141 bpm
- Mean Arterial Blood Pressure ([4]; 10 mg/kg): 104 mm Hg
- QTc Interval ([4]; 10 mg/kg): 222 ms
- Respiratory Rate ([4]; 10 mg/kg): 25
- Body Temperature ([4]; 20 mg/kg): 38.7 °C
- Heart Rate ([4]; 20 mg/kg): 145 bpm
- Mean Arterial Blood Pressure ([4]; 20 mg/kg): 97 mm Hg
- QTc Interval ([4]; 20 mg/kg): 220 ms
- Respiratory Rate ([4]; 20 mg/kg): 26
- SPR741-related clinical signs or changes in body weight, body temperature, blood pressures, heart rate, ECG intervals, respiratory rate, tidal volume, minute volume ([4]; monkeys, cardiopulmonary study): no SPR741-related clinical signs
- Tolerability ([5]; dose levels higher than 5 mg/kg): exhibited toxicity
- Tolerability ([5]; in vivo, 5 mg/kg): well tolerated
- % BUN increase relative to control (mg/dL) ([5]; in vivo, 10 mg/kg/day): 34%
- % BUN increase relative to control (mg/dL) ([5]; in vivo, 15 mg/kg/day): 59%
- % Control CRN ([5]; in vivo, 15 mg/kg/day): 59%
- Vd [6]: 0.179 L/kg
- clearance [6]: 7.37 mL/min/kg
- CL (human 70 kg, fixed exponent, monkey PK data): 70.8 mg/h/kg
- CL (human 70 kg, fixed exponent, mouse PK data): 57.5 mg/h/kg
- CL (human 70 kg, fixed exponent, rat PK data): 103 mg/h/kg
- CL [11]: 1.18 mL/min/kg
- T1/2 [11]: 2.33 h
- CL [12]: 0.958 mL/min/kg
- T1/2 [12]: 2.16 h
- Vd [12]: 0.179 L/kg
- CL [13]: 1.72 mL/min/kg
- T1/2 [13]: 2.31 h
- Vd [13]: 0.345 L/kg
- CL [14]: 1.5 mL/min/kg
- T1/2 [14]: 2.44 h
- Vd [14]: 0.315 L/kg
- CL [15]: 0.847 mL/min/kg
- T1/2 [15]: 2.34 h
- Vd [15]: 0.172 L/kg
- IC50 [1]: could not be calculated
- Change in mean hERG-mediated potassium currents ([1]; concentrations up to 300 μg/mL): no meaningful change
- inhibition at 10 μg/mL ([1]; human): 0.08%
- inhibition at 30 μg/mL ([1]; human): -0.09%
- inhibition at 100 μg/mL ([1]; human): 1.62%
- inhibition at 300 μg/mL ([1]; human): 3.87%
- Systemic exposure versus dose [7]: dose dependent proportional systemic exposure
- AUC value of efficacy data [8]: 60 µg·h/mL
- AUC(0-t) [9, 16]: 8200 ng·h/mL
- AUC(0-t) [9, 17]: 8300 ng·h/mL
- Cmax [9, 16]: 3400 ng/mL
- Cmax [9, 17]: 3300 ng/mL
- AUC(0-t) [9, 18]: 25000 ng·h/mL
- AUC(0-t) [9, 19]: 20300 ng·h/mL
- Cmax [9, 18]: 9500 ng/mL
- Cmax [9, 19]: 6700 ng/mL
- AUC(0-t) [9, 20]: 47400 ng·h/mL
- AUC(0-t) [9, 21]: 32900 ng·h/mL
- Cmax [9, 20]: 14900 ng/mL
- Cmax [9, 21]: 10800 ng/mL
- NOAEL at 14 days ([10]; both): 40 mg/kg/day
- Reversibility of nephrotoxicity [10]: fully reversible
